Measured values published in patent US4302535A, “Assay for mutagenesis in heterozygous diploid human lymphoblasts” (Massachusetts Institute of Technology, priority 1979, dated 1981).

Assays:
TK6 cells [1] = details: induced by BMS (3 mM, 2 hours), 5 μg/ml 6-thioguanine
TK6 cell line = test: Mutation assay employing TK6 cell line: induction of TFTdR-resistant mutants (Example 2, Table 1); format: cell-based, human
Protocol: One cell line, TK6, isolated in Example 1, was maintained in spinner culture at 37° C. with a doubling time of approximately 18 hours. Approximately 10^7 cells (4×10^5 /ml) were treated with either BMS (1 mM) of ICR-191 (0.25 μg/ml and 0.50 μg/ml) for 24 hours. After treatment, the cells were centrifuged and resuspended in fresh medium at a concentration of 3×10^5 /ml. Dilutions to 3×10^5 /ml were made daily.
At various times after treatment, duplicate aliquots of 4×10^6 cells were centrifuged and resuspended in 10 ml of RPMI containing 20% FCS, 100 μ/ml penicillin, and 0.25% agarose (plating agar). To determine the plating efficiency of the culture, a […] sample of the suspension containing 4000 cells was added to 5 ml of plating agar and layered over 5 ml prejelled layer of the same medium in a 100 mm petri dish. […] The suspension was then plated in two 5 ml aliquots, each layered over a prejelled layer of plating agar in a 100 mm petri dish (final TFTdR concentration=1 μg/ml). The plates were fed the following day with 3 ml of medium.
The plates were counted after 7-10 days in a 37° C., 5% CO2, humidified incubator.

[2] = tested on: TK6 cells and trifluorothymidine-resistant mutants; test: Reconstruction experiment: toxicity of BMS to TK6 and mutants (Example 7, FIG. 5); format: cell-based, human; details: 24 hours exposure; relative surviving fraction
Protocol: TK6 cells were exposed to BMS for 24 hours. After treatment, the relative surviving fraction was determined by plating in micro wells.

TK6 cells [3] = test: Mutagenicity of polyaromatic hydrocarbons, trifluorothymidine resistance (Example 8, Table 4); details: conclusion from plots and tables
Protocol: Three polyaromatic hydrocarbons derived from kerosine soot were examined for mutagenicity.
Error bars are the standard deviation of the mean.
For perylene, TK6 cells were treated in duplicate with perylene for 3 hours in the presence of 5% (v/v) aroclor-induced rat liver post-mitochondrial supernatant.

[4] = tested on: trifluorothymidine-resistant TK6 mutant clones and TK6; test: Growth of trifluorothymidine-resistant mutants in various media (Example 4, Table 2); format: cell-based, human; design: key to T2 - F3 TdR (doubling time): NG means no growth was observed in 3 days; details: F3 TdR 1.0 μg/ml
Protocol: Growth experiments were performed approximately three weeks later, in 25 cm^2 […] total volume. […] RPMI is normal medium with 15% fetal calf serum. […] CHAT contained 1×10^-5 M cytidine, 2×10^-4 M hypoxanthine, 2×10^-7 M aminopterin, and 1.75×10^-5 M thymidine.

TK6 cells [5] = test: Optimization of selective agent concentration (Example 6, FIG. 4); format: cell-based, human; details: 0.33 μg/ml through 10 μg/ml; microtiter plates, two weeks
From the text: FIG. 4 is a plot of the data obtained wherein each point is the average of two independent platings.

[6] = tested on: trifluorothymidine-resistant TK6 mutant clones; test: Plating efficiency of induced mutants in trifluorothymidine (Example 6, Table 3); format: cell-based, human
From the text: The effect of dead TK6 cells on the expression of mutants growing in microtiter plates was also studied.

[7] = 1 mM × 24 Hrs, day 1 post-treatment
[8] = 1 mM × 24 Hrs, day 3 post-treatment
[9] = 1 mM × 24 Hrs, day 5 post-treatment
[10] = 0.25 μg/ml × 24 Hrs, day 0 post-treatment
[11] = 0.25 μg/ml × 24 Hrs, day 2 post-treatment
[12] = 0.25 μg/ml × 24 Hrs, day 4 post-treatment
[13] = 0.5 μg/ml × 24 Hrs, day 0 post-treatment
[14] = 0.5 μg/ml × 24 Hrs, day 2 post-treatment
[15] = 0.5 μg/ml × 24 Hrs, day 4 post-treatment

## Nc1nc2nc[nH]c2c(=S)[nH]1 [6-thioguanine]
TK6 cells [1]
  phenotypic expression time of 6-thioguanine resistance: 5 to 6 days

## CCCCOS(C)(=O)=O [BMS, butylmethane sulfonate]
TK6 cell line; [7]
  Observed Mutants per 4 × 10^6 Cells: 132
  Plating Efficiency: 0.094
TK6 cell line; [8]
  Observed Mutants per 4 × 10^6 Cells: 275
  Plating Efficiency: 0.15
TK6 cell line; [9]
  Observed Mutants per 4 × 10^6 Cells: 387
  Plating Efficiency: 0.23
[2]
  toxicity to TK6 and a mixture of mutants or a single mutant clone: equally toxic

## COc1ccc2nc3cc(Cl)ccc3c(NCCCNCCCl)c2c1 [ICR-191]
TK6 cell line; [10]
  Observed Mutants per 4 × 10^6 Cells: 26
  Plating Efficiency: 0.25
TK6 cell line; [11]
  Observed Mutants per 4 × 10^6 Cells: 139
  Plating Efficiency: 0.26
TK6 cell line; [12]
  Observed Mutants per 4 × 10^6 Cells: 126
  Plating Efficiency: 0.27
TK6 cell line; [13]
  Observed Mutants per 4 × 10^6 Cells: 55
  Plating Efficiency: 0.24
TK6 cell line; [14]
  Observed Mutants per 4 × 10^6 Cells: 229
  Plating Efficiency: 0.25
TK6 cell line; [15]
  Observed Mutants per 4 × 10^6 Cells: 182
  Plating Efficiency: 0.20

## c1ccc2c(c1)-c1cccc3cccc-2c13 [fluoranthene]
TK6 cells [3]
  mutagenic activity for these human cells: active as mutagens

## c1cc2cccc3c4cccc5cccc(c(c1)c23)c54 [perylene]
TK6 cells [3]
  mutagenic activity for these human cells: inactive

## O=c1[nH]c(=O)n([C@H]2C[C@H](O)[C@@H](CO)O2)cc1C(F)(F)F [trifluorothymidine]
[4]; TK6
  T2 - F3 TdR (doubling time): NG
[4]; all mutants
  growth of mutants in F3 TdR: all mutants grew well
[4]; mutant BMS-2
  T2 - F3 TdR (doubling time): 18.4
[4]; mutant BMS-3
  T2 - F3 TdR (doubling time): 19.2
[4]; mutant BMS-4
  T2 - F3 TdR (doubling time): 17.7
[4]; mutant BMS-5
  T2 - F3 TdR (doubling time): 19.7
[4]; mutant ICR-1
  T2 - F3 TdR (doubling time): 18.6
[4]; mutant ICR-2
  T2 - F3 TdR (doubling time): 21.2
TK6 cells [5]
  observed mutant fraction of an untreated culture versus trifluorothymidine concentration: no difference in the observed mutant fraction
[6]; mutant BMS-2
  PE in RPMI - F3 TdR: 0.09
  PE in RPMI-F3 TdR with 40,000 TK6/well: 0.09
[6]; mutant BMS-3
  PE in RPMI - F3 TdR: 0.21
  PE in RPMI-F3 TdR with 40,000 TK6/well: 0.17
[6]; mutant BMS-4
  PE in RPMI - F3 TdR: 0.11
  PE in RPMI-F3 TdR with 40,000 TK6/well: 0.15
[6]; mutant BMS-5
  PE in RPMI - F3 TdR: 0.29
  PE in RPMI-F3 TdR with 40,000 TK6/well: 0.31
[6]; mutant ICR-1
  PE in RPMI - F3 TdR: 0.21
  PE in RPMI-F3 TdR with 40,000 TK6/well: 0.21
[6]; mutant ICR-2
  PE in RPMI - F3 TdR: 0.09
  PE in RPMI-F3 TdR with 40,000 TK6/well: 0.10
